Test results taken from patent publication US6541468B1, “Indolocarbazole derivatives useful for the treatment of neurodegenerative diseases and cancer” (Bayer Corporation, priority 1998, dated 2003).

Row | melting point [°C] | SMILES
1 | > 230 | O=C1NC(=O)c2c1c1c3ccccc3n3c1c1c2c2ccccc2n1C1CC3CC1=O (centres unmarked) [Example 3, 9,12-Methano-1H-diindolo[1,2,3-fg:3′,2′,1′-kl]pyrrolo[3,4-I][1,6]benzodiazocine-1,3,10 (2H,9H)-trone, 11,12-dihydro]
2 | > 200 | O=C1NC(=O)c2c1c1c3ccccc3n3c1c1c2c2ccccc2n1C1CC3[C@@H](O)[C@H]1O [Example 1, 9,12-Methano-1H-diindolo[1,2,3-fg:3′,2′,1′-kl]pyrrolo[3,4-][1,6]benzodiazocine-1,3 (2H)-dione,9,10,11,12-tetrahydro-10,11-dihydroxy-(9α,10α,11α,12α)]
